Drawing on article PMC3474888 (Pharmaceutical research, 2012), this text covers IC50 for 1 molecule.

The test system of the experiment is tubulin. Briefly: tubulin assembly inhibition, turbidimetry at […] nm. Format: biochemical, Bos taurus. The note with it: read-out: Inhibition of / Tubulin Assembly IC50±SD.

Take `COc1ccc(N(C)c2nc(C)nc3cc[nH]c23)cc1` [compound 3, N-(4-Methoxyphenyl)-N,2-dimethyl-5H-pyrrolo[3,2-d]pyrimidin-4-amine]: the IC50 stood at 10 ± 0.6 µM.
